Measured values reported in publication PMC8143347, “Metabolism and Interspecies Variation of IMMH-010, a Programmed Cell Death Ligand 1 Inhibitor Prodrug” (Pharmaceutics, 2021).

Key:
[1] = Metabolism in human liver S9 fractions; type: in vitro ADME
Procedure: IMMH-010 metabolism was compared in human, monkey, dog, and rat liver S9 homogenates. IMMH-010 (10 μM) was incubated with liver S9 homogenate protein (0.5 mg protein/mL) and a reduced nicotinamide adenine dinucleotide phosphate (NADPH) regenerating system in a final volume of 0.2 mL Tris-HCl buffer (50 mM, pH 7.4) containing 5 mM MgCl2. The reactions were performed in triplicate. After 2 min of preincubation at 37 °C, reactions were initiated by the addition of IMMH-010 (10 μM). The samples were collected 0, 5, 10, and 20 min after incubation, 2 volumes of acetonitrile were added to terminate the reaction. After vortexing and centrifugation, IMMH-010, YPD-29B, M3, and M4 in the supernatant were analyzed by LC-MS/MS.
All statistics were calculated using GraphPad Prism 8.0 software (San Diego, CA, USA) designed for one-way ANOVA. Pharmacokinetic parameters were calculated with a non-compartmental analysis using WinNonlin Version 6.3 (Pharsight, Mountain View, CA, USA). ADMET predictor V10.0 (Simulations Plus, Inc., Lancaster, CA, USA) and Microsoft Excel (Microsoft, Redmond, WA, USA) were used to process the data (i.e., half-life (t1/2) and hepatic clearance (CLhep) determination). Data were expressed as means ± standard deviations (SD). Results were considered statistically significant if the p-value <0.05, <0.01 and <0.001.

[2] = Body weight in B16F10 model
Procedure: The antitumor activity of IMMH-010 was evaluated by B16F10 melanoma and MC38 colon carcinoma xenograft models. The B16F10 and MC38 cells were resuspended in saline (1.5 × 10^6 cells/0.2 mL saline) and injected subcutaneously into the right flanks of each mouse on day 0. The treated mice received once-daily oral administration of IMMH-010 maleate (1.25, 2.5, 5, and 10 mg/kg, n = 10) by oral gavage (PO) for 19 consecutive days, whereas the control mice received vehicle (0.5% carboxymethyl cellulose, n = 10). The mice in the positive control group received the anti-mouse PD-L1 antibody (696618M2, Bio X Cell, West Lebanon, NH, USA) at 10 mg/kg intraperitoneally every 3 days (n = 10). The first-line antineoplastic drug cyclophosphamide (CTX) was administered at doses of 80 and 40 mg/kg weekly in the B16F10 and MC38 models (n = 10), respectively. After the last treatment, on day 19, the mice were sacrificed, and the tumor and spleen were stripped and weighed. The tumor growth inhibition (TGI) was calculated as TGI = (1 − treatment group tumor weight/vehicle group tumor weight) × 100.

[3] = IMMH-010 stability in mouse plasma; type: in vitro ADME; details: 10 μM, 4 °C, 60 min
Procedure: IMMH-010 hydrolysis was investigated in human, monkey, rat, and mouse plasma. IMMH-010 (1 μM) was incubated in human, monkey, or […] plasma (0.2 mL) at 37 °C for 120 min. IMMH-010 (10 μM) was incubated in rat or mouse plasma (0.2 mL) at 4 °C for 60 min. The experiments were performed in triplicate. The reactions were initiated by the addition of IMMH-010 (10 μM). After incubation, the reactions were stopped by adding 2 volumes of ice-cold acetonitrile. After vortexing and centrifuging, the concentrations of IMMH-010 and YPD-29B in the supernatant were determined by liquid chromatography with tandem mass spectrometry (LC-MS/MS). The compound olmesartan (10 μM), a substrate of paraoxonase 1, was set as the positive control.

Question: For `CC(C)OC(=O)[C@H](CO)NCc1cc(Cl)c(OCc2cccc(-c3ccccc3)c2Br)cc1OCc1cccnc1` [IMMH-010], which “estimated CLhep” value ([1]; from human liver S9) is on record?
Answer: 18.2 mL/min/kg

Question: What about the half-life at 10 μM ([1]; pH 7.4, human liver S9 0.5 mg protein/mL, 10 μM, NADPH) of the same compound?
Answer: 6.66 min

Question: What about the “CLhep as share of hepatic blood flow” value ([1]; range over human, monkey, dog and rat liver S9) of the same compound?
Answer: 83.4–91.0%

Question: And the “Body Weight (g) X ± SD Finish” value ([2]; B16F10, IMMH-010 maleate 1.25 mg/kg PO once daily 19 days)?
Answer: 20.2 ± 1.4 g

Question: What about the “Body Weight (g) X ± SD Start” value ([2]; B16F10, IMMH-010 maleate 1.25 mg/kg PO once daily) of the same compound?
Answer: 17.09 ± 0.63 g

Question: And the “Body Weight (g) X ± SD Finish” value ([2]; B16F10, IMMH-010 maleate 2.5 mg/kg PO once daily 19 days)?
Answer: 20.3 ± 1.2 g

Question: What about the “Body Weight (g) X ± SD Start” value ([2]; B16F10, IMMH-010 maleate 2.5 mg/kg PO once daily) of the same compound?
Answer: 16.86 ± 0.57 g

Question: What about the “Body Weight (g) X ± SD Finish” value ([2]; B16F10, IMMH-010 maleate 5 mg/kg PO once daily 19 days) of the same compound?
Answer: 20.0 ± 1.2 g

Question: What about the “Body Weight (g) X ± SD Start” value ([2]; B16F10, IMMH-010 maleate 5 mg/kg PO once daily) of the same compound?
Answer: 17.09 ± 0.81 g

Question: What about the “Body Weight (g) X ± SD Finish” value ([2]; B16F10, IMMH-010 maleate 10 mg/kg PO once daily 19 days) of the same compound?
Answer: 20.1 ± 1.0 g

Question: What about the “Body Weight (g) X ± SD Start” value ([2]; B16F10, IMMH-010 maleate 10 mg/kg PO once daily) of the same compound?
Answer: 17.15 ± 0.50 g

Question: What about the “effect on body weight” value ([2]; B16F10 model, IMMH-010 maleate PO once a day for 19 days) of the same compound?
Answer: without weight loss

Question: And the plasma stability [3]?
Answer: decreased time-dependently
